Source: BindingDB's records for doi:10.1021/acs.jnatprod.0c01136 (Chinese Academy of Sciences, 2021)
pIC50: −log10 of the molar value.

Test: Inhibition of spike glycoprotein S in SARS-CoV-2 pseudovirus infected in human 293T/ACE2 cells assessed as inhibition of viral infection pretreated the virus for 30 mins followed by viral infection measured after 48 hrs by luciferase reporter gene assay

Compound | pIC50
COc1c(O)c2c(=O)cc(OC)c3c4c(OC)cc(=O)c5c(O)c(OC)c6c(c(c1C[C@](C)(O)[C@H]6C(C)=O)c23)c54 | 6.92
COC1=C(CC(C)=O)C(=O)c2c(c(O)cc(OC)c2-c2c(OC)cc(O)c3c2C(=O)C(CC(C)=O)=C(OC)C3=O)C1=O | 6.77
COc1c2c3c4c(c(OC)c(=O)c5c(O)cc(OC)c(c6c(OC)cc(O)c(c1=O)c63)c54)[C@@H](C(C)=O)[C@@](C)(O)C2 [Hypocrellin A] | 7.42
